Test results from US20230312491A1, “N-SUBSTITUTED 4-(5-PHENYL-1,3,4-OXADIAZOL-2-YL)ANILINE FOR THE TREATMENT AND PROPHYLAXIS OF HEPATITIS B VIRUS INFECTION” (priority 2020, published 2023).

Assays:
Format in all cases: cell-based
[1] = system: HBsAg; test: PHH natural infection assay, HBsAg (alphalisa); details: Hepatitis B virus, Hepatocyte, 72 h, read-out: HBsAg IC50
Procedure: (§1) Detailed procedures regarding primary human hepatocyte (PHH) HBV natural infection assay are described as below. One tube of frozen PHH (10 million cells) is thawed in 37° C. water bath and then transferred to 20 mL of PHH thawing medium (Sigma, InVitroGRO HT Medium, Cat. S03319) with gently mixing. The cells were then centrifuged at […] for 5 min, the supernatant was discarded and the tube was refilled with 25 mL of PHH plating medium (Sigma, InVitroGRO CP Medium, Cat. S03317). The tube was shaken very gently to re-suspend all cells, and then 50 µl of cells were transferred to each well 384-well collagen I coated plate with appropriate liquid handling equipment, e.g. Integra VIAFLO384 or Agilent Bravo. The cells were then cultured for 24 hours in a cell incubator. For HBV infection, after PHH attachment on the culture plate, the plating medium was removed and replenished with PHH culture medium containing HBV virus. The PHH culture medium was prepared with Dulbecco’s Modified Eagle Medium (DMEM)/F12 (1: 1 in volume ratio) containing 10% fetal bovine serum (Gibco, Cat.10099141), 5 ng/mL human epidermal growth factor (Gibco, Cat.PHG0311L), 20 ng/mL dexamethasone (Sigma, Cat.D4902-100 mg), 250 ng/mL human recombinant insulin (Gibco, Cat.41400045) and 100 U/mL penicillin. HBV virus at 200 genome equivalent (GE) per cell with 4% PEG8000 (Sigma, Cat.P1458) containing culture medium were added to the PHH culture medium for infection. The cells were then cultured for 24 hours in cell incubator. Then the cell culture supernatant was removed. The HBV-infected PHH were cultured with sandwich culture method with PHH culture medium containing 1% DMSO and 0.25 mg/mL matrix gel for 72 hours. The supernatant was then refreshed with PHH culture medium containing different concentrations of testing compounds for two times with 72-hour interval. At the end of treatment, the supernatant was collected for viral markers measurements, including HBsAg, HBeAg, HBV DNA and cytotoxicity. HBsAg and HBeAg were detected using alphalisa method using their specific antibodies. For HBV DNA detection, HBV DNA Quantitative Fluorescence Diagnostic Kit (Sansure Biotech Inc.) was used following the manufacture’s protocol. Cytotoxicity was determined using Cell Counting Kit-8 (CCK8, Dojindo Molecular Technologies, Inc.).
(§2) The compounds of the present invention were tested for their capacity to inhibit HBsAg and HBeAg as described herein.

[2] = system: HBeAg; test: PHH natural infection assay, HBeAg (alphalisa); details: Hepatitis B virus, Hepatocyte, 72 h, read-out: HBeAg IC50
Procedure: as §1, §2

[3] = PHH natural infection assay, cytotoxicity (Cell Counting Kit-8); details: HBV-infected primary human hepatocytes, CCK8
Procedure: as §1

| Structure (SMILES) | IC50 [1] [µM] | IC50 [2] [µM] | CC50 at 144 h [3] [µM] |
| --- | --- | --- | --- |
| CCC(=O)Nc1ccc(-c2nnc(-c3ccccc3)o2)cc1 [Example 1, N-[4-(5-phenyl-1,3,4-oxadiazol-2-yl)phenyl]propanamide] | 1.19 | 4.85 | > 100 |
| CCCC(=O)Nc1ccc(-c2nnc(-c3ccccc3)o2)cc1 [Example 2, N-[4-(5-phenyl-1,3,4-oxadiazol-2-yl)phenyl]butanamide] | 3 | 43.1 | > 100 |
| CCCCC(=O)Nc1ccc(-c2nnc(-c3ccccc3)o2)cc1 [Example 3, N-[4-(5-phenyl-1,3,4-oxadiazol-2-yl)phenyl]pentanamide] | 2.39 | 3.01 | > 100 |
| CC(C)CC(=O)Nc1ccc(-c2nnc(-c3ccccc3)o2)cc1 [Example 4, 3-methyl-N-[4-(5-phenyl-1,3,4-oxadiazol-2-yl)phenyl]butanamide] | 2.8 | 3.43 | > 100 |
| COCCC(=O)Nc1ccc(-c2nnc(-c3ccccc3)o2)cc1 [Example 5, 3-methoxy-N-[4-(5-phenyl-1,3,4-oxadiazol-2-yl)phenyl]propanamide] | 0.59 | 0.69 | > 100 |
| CC(C)C(=O)Nc1ccc(-c2nnc(-c3ccccc3)o2)cc1 [Example 6, 2-methyl-N-[4-(5-phenyl-1,3,4-oxadiazol-2-yl)phenyl]propanamide] | 1.33 | 2.2 | > 100 |
| O=C(Nc1ccc(-c2nnc(-c3ccccc3)o2)cc1)C1CCCC1 [Example 7, N-[4-(5-phenyl-1,3,4-oxadiazol-2-yl)phenyl]cyclopentanecarboxamide] | 0.51 | 0.77 | > 100 |
| O=C(Nc1ccc(-c2nnc(-c3ccccc3)o2)cc1)c1ccccc1F [Example 8, 2-fluoro-N-[4-(5-phenyl-1,3,4-oxadiazol-2-yl)phenyl]benzamide] | 4.17 | 5.06 | > 100 |
| O=C(Nc1ccc(-c2nnc(-c3ccccc3)o2)cc1)c1ccccc1Cl [Example 9, 2-chloro-N-[4-(5-phenyl-1,3,4-oxadiazol-2-yl)phenyl]benzamide] | 8.23 | 1.69 | > 100 |
| Cc1cc(F)cc(C(=O)Nc2ccc(-c3nnc(-c4ccccc4)o3)cc2)c1 [Example 10, 3-fluoro-5-methyl-N-[4-(5-phenyl-1,3,4-oxadiazol-2-yl)phenyl]benzamide] | 1.61 | 2.17 | > 100 |
| Cc1cc(Cl)cc(C(=O)Nc2ccc(-c3nnc(-c4ccccc4)o3)cc2)c1 [Example 11, 3-chloro-5-methyl-N-[4-(5-phenyl-1,3,4-oxadiazol-2-yl)phenyl]benzamide] | 6.4 | 12.7 | > 100 |
| O=C(Nc1ccc(-c2nnc(-c3ccccc3)o2)cc1)c1ccc(F)cc1 [Example 12, 4-fluoro-N-[4-(5-phenyl-1,3,4-oxadiazol-2-yl)phenyl]benzamide] | 6.2 | 6.33 | > 100 |
| O=C(Nc1ccc(-c2nnc(-c3ccccc3)o2)cc1)c1ccc(Cl)cc1 [Example 13, 4-chloro-N-[4-(5-phenyl-1,3,4-oxadiazol-2-yl)phenyl]benzamide] | 5.62 | 4.43 | > 100 |
| O=C(Nc1ccc(-c2nnc(-c3ccccc3)o2)cc1)c1ccccc1OC(F)(F)F [Example 14, N-[4-(5-phenyl-1,3,4-oxadiazol-2-yl)phenyl]-2-(trifluoromethoxy)benzamide] | 3.59 | 2.88 | > 100 |
| O=C(Nc1ccc(-c2nnc(-c3ccccc3)o2)cc1)c1ccccc1OC(F)F [Example 15, 2-(difluoromethoxy)-N-[4-(5-phenyl-1,3,4-oxadiazol-2-yl)phenyl]benzamide] | 1.94 | 1.94 | > 100 |
| O=C(Nc1ccc(-c2nnc(-c3ccccc3)o2)cc1)c1cccc(OC(F)(F)F)c1 [Example 16, N-[4-(5-phenyl-1,3,4-oxadiazol-2-yl)phenyl]-3-(trifluoromethoxy)benzamide] | 1.35 | 2.91 | > 100 |
| O=C(Nc1ccc(-c2nnc(-c3ccccc3)o2)cc1)c1cccc(OC(F)F)c1 [Example 17, 3-(difluoromethoxy)-N-[4-(5-phenyl-1,3,4-oxadiazol-2-yl)phenyl]benzamide] | 1.46 | 2.79 | > 100 |
| N#Cc1ccc(C(=O)Nc2ccc(-c3nnc(-c4ccccc4)o3)cc2)cc1 [Example 18, 4-cyano-N-[4-(5-phenyl-1,3,4-oxadiazol-2-yl)phenyl]benzamide] | 2.54 | 2.26 | > 100 |
| O=C(Nc1ccc(-c2nnc(-c3ccccc3)o2)cc1)c1ccncc1 [Example 19, N-[4-(5-phenyl-1,3,4-oxadiazol-2-yl)phenyl]pyridine-4-carboxamide] | 4.8 | 2.8 | > 100 |
| O=C(Nc1ccc(-c2nnc(-c3ccccc3)o2)cc1)c1ccnc(Cl)c1 [Example 20, 2-chloro-N-[4-(5-phenyl-1,3,4-oxadiazol-2-yl)phenyl]pyridine-4-carboxamide] | 1.39 | 2.56 | > 100 |
| COc1cc(C(=O)Nc2ccc(-c3nnc(-c4ccccc4)o3)cc2)ccn1 [Example 21, 2-methoxy-N-[4-(5-phenyl-1,3,4-oxadiazol-2-yl)phenyl]pyridine-4-carboxamide] | 2 | 1.91 | > 100 |
| O=C(Nc1ccc(-c2nnc(-c3ccccc3)o2)cc1)c1cccc(Cl)n1 [Example 22, 6-chloro-N-[4-(5-phenyl-1,3,4-oxadiazol-2-yl)phenyl]pyridine-2-carboxamide] | 0.96 | 1.59 | > 100 |
| O=C(Nc1ccc(-c2nnc(-c3ccccc3)o2)cc1)c1ccc(Cl)cn1 [Example 23, 5-chloro-N-[4-(5-phenyl-1,3,4-oxadiazol-2-yl)phenyl]pyridine-2-carboxamide] | 1.23 | 2.12 | > 100 |
| O=C(Nc1ccc(-c2nnc(-c3ccccc3)o2)cc1)c1ccnnc1 [Example 24, N-[4-(5-phenyl-1,3,4-oxadiazol-2-yl)phenyl]pyridazine-4-carboxamide] | 1.2 | 1.6 | > 100 |
| O=C(Nc1ccc(-c2nnc(-c3ccccc3)o2)cc1)c1cccnn1 [Example 25, N-[4-(5-phenyl-1,3,4-oxadiazol-2-yl)phenyl]pyridazine-3-carboxamide] | 1.09 | 1.27 | > 100 |
| O=C(Nc1ccc(-c2nnc(-c3ccccc3)o2)cc1)c1ncco1 [Example 26, N-[4-(5-phenyl-1,3,4-oxadiazol-2-yl)phenyl]oxazole-2-carboxamide] | 0.91 | 1.42 | > 100 |
| O=C(Nc1ccc(-c2nnc(-c3ccccc3)o2)cc1)c1nccs1 [Example 27, N-[4-(5-phenyl-1,3,4-oxadiazol-2-yl)phenyl]thiazole-2-carboxamide] | 1.52 | 1.71 | > 100 |
